Measured values: US10751338B2, “Sustained-release voriconazole-containing thermogel and uses thereof” (priority 2017, dated 2020)
Converted amounts (≈) assume the structure as drawn.

Key:
[1] = In vitro release of voriconazole from the thermogel (Example 5); type: physicochemical
Procedure: Each formulation was tested in triplicate.
The injection volume was 100 μl.

[2] = Ex-vivo trans-corneal fluorescein permeation, Franz diffusion cell (Example 4); type: in vitro ADME, horse; settings: 10 μM sodium fluorescein, 6 hours, 37° C.
Procedure: Fresh equine corneas used in the experiment were obtained from horses enrolled in terminal laboratories performed at the AULATH. Corneoscleral buttons (16 mm diameter) were dissected using standard eye bank technique within 2 hours of enucleation. Fluorescent permeation experiments using a Franz diffusion cell method were performed to examine the integrity of the epithelial barrier function during the times studied (2 and 6 hours). Corneas were mounted horizontally between the donor and the receiving compartments of the diffusion cells (exposure window 0.64 cm^2), which were maintained at 37° C. (see FIGS. 8A and 8B).
Samples (1 ml PBS pH 7.4) were removed from the receiving compartment hourly and replaced with fresh receiving fluid. The fluorescent intensities of the receiving solution samples were analyzed using a microplate spectrofluorometer (Fluostar, BMG Labtech, Ortenberg, Germany) and a 96 well plate (Costar, Corning, N.Y.). A standard solution of NaF was prepared in PBS with a concentration range of 30 μg/ml to 0.12 μg/ml. Fluorescence was determined in a spectrofluorometer at excitation and emission wavelengths of 490 nm and 512 nm, respectively. All groups were tested in triplicate. The results were expressed as mean value±standard error of the mean (SEM).

[3] = tested on: common equine fungal pathogens; settings: target MIC; cited from earlier work

For `C[C@@H](c1ncncc1F)[C@](O)(Cn1cncn1)c1ccc(F)cc1F` [Group 6, voriconazole], the “Day by which voriconazole was undetectable” value ([1]; PBS samples) was at most 6 days, the UC24 ([1]; mean, PBS, 34.5° C.) was 4133 µg·days/mL and the UC28 ([1]; mean, PBS, 34.5° C.) was 4135 µg·days/mL. It also gave a K release ([1]; mean, first-order release) of 0.7558 day⁻¹.
With `O=C1OC2(c3ccc(O)cc3Oc3cc(O)ccc32)c2ccccc21` [fluorescein, sodium fluorescein] the “Fluorescein concentration in receiving compartment versus negative control” value [2] was “not significantly different”.
For `C[C@@H](c1ncncc1F)[C@](O)(Cn1cncn1)c1ccc(F)cc1F` [voriconazole], the MIC [3] is given as 0.5 µg/mL (≈ 1.43 µM).
